Data published in patent US10564168B2, “Method for treating male infertility based on NOX5 protein levels in sperm” (priority 2013, dated 2020).

Legend:
[1] = system: human spermatozoa; test: Superoxide assay, luminol-based Diogenes chemiluminescence, whole spermatozoa; format: cell-based
From the text: (§1) Human semen samples were obtained from patient donors as a part of their clinical evaluation for fertility and reproductive health status. Portions of the samples not required for clinical analyses were de-identified and made available for the research protocols described. Under these conditions, the Institutional Review Board determined that the study is exempt from requirements for protocol approval and informed consent. Semen was collected by masturbation into sterile plastic containers and allowed to liquefy for at least 30 min before being processed. The samples were centrifuged (500 g, 15 min) to separate the seminal plasma from spermatozoa, and the pellet washed twice in phosphate-buffered normal saline pH 7 with 10 mM glucose (PBS-G). The spermatozoa were then counted in a hemocytometer chamber, resuspended in PBS-G at 10^9/ml, and used for superoxide assays. Sperm samples containing leukocytes detected by microscopic examination were excluded from the study. For selected experiments, motile spermatozoa were collected using the swim-up procedure (Vijayakumar et al. (1986) Arch. Androl. 17, 223-230; Parrish and Foote (1987) J. Androl. 8, 259-266). Briefly, the spermatozoa were sedimented by centrifugation (500 g, 15 min) and the tube was then incubated upright for 60 min at 37° C. Motile spermatozoa that progressed from the pellet into the supernatant (swim-up fraction) were collected by aspiration and counted.
(§2) Superoxide generation was measured using a luminol-based chemiluminescence assay (Diogenes reagent, National Diagnostics, Atlanta, Ga.). […] Spermatozoa were suspended at 10^9/ml in PBS-G. A 100 μl aliquot of the Diogenes reagent was mixed with 2×10^7 spermatozoa and incubated at 37° C. for 2-4 minutes. Superoxide generation was measured at baseline and after stimulation with ionomycin (1 μM), phorbol myristate acetate (PMA, 1 μg/ml), or H2O2 (100 μM and other concentrations as indicated). Chemiluminescence was measured every 30-60 sec for up to 10-15 min using a Clarity™ BioTek luminometer and an integration time of 5 sec.
Spermatozoa were pre-incubated for 5 min prior to the superoxide assay with 400 U/ml superoxide dismutase (SOD), 10 μM diphenylene iodonium (DPI), or 100 μM 1,2-Bis (2-aminophenoxy) ethane-N,N,N′,N′-tetraacetic acid (BAPTA). […] In some experiments, cells were pre-exposed to the NOX inhibitor 2-(2-chlorophenyl)-4-methyl-5-(pyridin-2-ylmethyl)-1H-pyrazolo[4,3-c]pyridine-3,6(2H,5H)-dione (GKT136901, 0.5 μM and other concentrations as indicated) for 10 min before exposure to either H2O2 or PMA.

[2] = system: human spermatozoa; test: Live cell confocal imaging with fluo4-AM and DHE; format: cell-based; settings: H2O2, 10 min
Experimental: Spermatozoa suspended in PBS-G were plated on poly-L-lysine-coated glass coverslips (2×10^5 cells/ml) in PBS-G and loaded with 6 μM fluo4-AM and 300 nM dihydroethidine (DHE) (Molecular Probes, Carlsbad, Calif.) 10 min before imaging. Ca2+ influx and superoxide production were recorded using a confocal microscope (LSM 510; Carl Zeiss MicroImaging, Inc., Thornwood, N.Y.) with a 63×/1.4 NA plan-apochromat objective. Fluo-4 and DHE fluorescence emissions were excited with dual laser at 488/543 nm attenuated to avoid photobleaching and saturation. Detection was through a 545 nm long-pass dichroic mirror and a band-pass filter at 500-530 for fluo-4 and LP560 for DHE.

[3] = system: c-Abl; test: Phospho-c-Abl immunoblot and immunostaining of spermatozoa; format: cell-based, human; settings: 100 μM H2O2, 10 min
Experimental: Spermatozoa resuspended in lysis buffer A (20 mM HEPES, pH 7.9; 350 mM NaCl; 0.5 mM EDTA; 0.5 mM EGTA; 1 mM MgCl2; 10% glycerol (v/v); 1% Nonidet P-40 (v/v); 10 mM NaF; 0.1 mM Na3VO4 [orthovanadate], 8 mM β-glycerophosphate; phosphatase inhibitor cocktail I and II [Sigma]; and protease inhibitor cocktail [Roche, Mannheim, Germany]) were sonicated 3 times for 5 sec each (20 watts). Lysates were cleared by centrifugation (10,000 g, 15 min). Aliquots containing 60-200 μg of protein were separated on 4-20% SDS polyacrylamide gradient gels and transferred to polyvinylidene difluoride (PVDF) membranes. […]
For immunohistological analyses, a drop of spermatozoa suspended in PBS-G was placed on a poly-L-lysine-coated glass slide, fixed in 4% (w/v) paraformaldehyde and permeabilized with 0.1% Triton X-100 (v/v) for 15 min at 4° C. […] Protein expression was visualized on a fluorescence microscope (Zeiss, Thornwood, N.Y.). […]

[4] = system: human spermatozoa; test: Swim-up procedure, sperm motility; format: cell-based; settings: 100 μM H2O2, 10 min
From the text: as §1

[5] = system: K562/NOX5 cells; test: Superoxide production by K562/NOX5 cells; format: cell-based, human; settings: 1 mM ZnCl2, K562/NOX5 cells
Experimental: as §2
Human leukemia cells stably transfected with an empty vector (K562 cells) or a vector encoding for NOX5 (K562/NOX5) were grown in RPMI medium supplemented with 10% (v/v) fetal bovine serum, plus 100 U/ml penicillin and 100 μg/ml streptomycin and the appropriate selection antibiotic. Cells in the logarithmic phase of growth were transfected with a mix of HV1 siRNA (Sigma) or with scrambled siRNA (Sigma) using the Neon system (Invitrogen, Carlsbad, Calif.) according to the manufacturer's recommendations. […]

| SMILES | dose dependence of induction of superoxide generation ([1]; 1 to 500 μM H2O2) | H2O2-stimulated superoxide production by hypermotile spermatozoa of the upper fraction after spontaneous swim-up ([1]; compared with pre-swim-up cells) | onset of superoxide burst after peroxide addition ([1]; human spermatozoa) [min] | time to maximal superoxide activity levels ([1]; human spermatozoa, varying among donors) [min] | induction of superoxide production by spermatozoa ([1]; ionomycin 1 μM, PMA 1 μg/ml or H2O2 100 μM, 10 min) | cytosolic Ca2+ levels and superoxide fluorescence [2] | phosphorylation of c-Abl [3] | effect on number of sperm in the swim-up fraction [4] | sensitivity of superoxide production induced by H2O2, PMA, or ionomycin ([1]; 1 mM ZnCl2, 5 min pre-incubation, human spermatozoa) | decrease of superoxide production stimulated by ionomycin, PMA, or H2O2 [5] |
| --- | --- | --- | --- | --- | --- | --- | --- | --- | --- | --- |
| OO [H2O2] | dose-dependent | did not produce superoxide | 1 to 2 | 5 to 10 | induced a marked burst in superoxide production | increases in cytosolic Ca2+ levels | induced the phosphorylation of c-Abl on tyrosine 245 | increase in the number of sperm in the swim-up fraction | – | – |
| [Cl-].[Cl-].[Zn+2] [ZnCl2] | – | – | – | – | – | – | – | – | Zn2+-sensitive | 50-70% |
